According to PMC8979682, “Synthesis, Antioxidant, and Antidiabetic Activities of Ketone Derivatives of Succinimide” (Evidence-based Complementary and Alternative Medicine : eCAM, 2022):
≈ marks a conversion by molar mass, not a printed value.

Legend:
[1] = molecular target: α-amylase; assay: in vitro α-amylase inhibition; type: biochemical
Experimental: The starch solution was added, following incubation of the mixture, and the reaction mixture thus prepared was kept in water bath at 100°C for some time. Microplate reader measured the intensity of the color at 656 nm. Following formula was used to determine percentage inhibition:(3) percent inhibition=absorbancecontrol−absorbancesample/absorbancecontrol×100.

[2] = tested on: diabetic mice (by alloxan); assay: antidiabetic activity in diabetic mice (by alloxan); type: in vivo
Experimental: Alloxan was used for the induction of diabetes mellitus according to reported procedure. Recently prepared Alloxan (ALX) was injected intraperitoneally to animals, fasting for 16 h, at a single dose of (150 mg/kg). […] Only diabetic animals, having random blood glucose level more than 200 mg/dl, were selected for studies. All the experimental procedure were approved from the ethical committee department of pharmacy, University of Swabi via letter No; UOS-06/2021.
A total of 30 animals were used to determine the hypoglycemic effect of the synthesized derivatives of succinimide. The experimental animals were segregated in six groups […], having five (5) animals in each group. Group I was designated as normal group and was given normal saline I/P only. Group II was given Tween 80, and Group III was given standard drug (glibenclamide) after the induction of diabetes. Group IV, Group V, and Group VI were given the various doses of synthesized compounds, respectively. […]

[3] = ABTS scavenging activity; type: biochemical
Experimental: For the determination of the antioxidant activity of the synthesized compounds, the previously reported method for ABTS scavenging activity was used with slight modification. The stock solution of 2.4 mM of potassium per sulfate solution and 7 mM ABTS solution was prepared by mixing them in equal volumes for 16 h. The stock solution thus prepared was diluted using methyl alcohol to give absorption of 0.7 ± 0.02 units when studied at the wavelength of 734 nm using a spectrophotometer. Fresh ABTS solution was prepared for each ABTS scavenging assay. About 150 μL of the ABTS working solution was added to 50 μL of synthesized compounds and kept in darkness for 10 min. […] Methanol was used as blank, and standard ascorbic acid was run at the same time. The absorbance was calculated utilizing a microplate reader at 734 nm.

[4] = molecular target: α-glucosidase; assay: in vitro α-glucosidase inhibition; type: biochemical
Experimental: For in vitro α-glucosidase activity, samples were prepared by adding glucopyranoside to phosphate buffer solvent, and different concentrations of the synthesized compounds (31.25, 62.5, 125, 250, and 500 µg/ml), respectively, were added to this solution and then the enzyme glucosidase in distilled water (0.5 µg/ml) was also added to the above mixture. The reaction mixture thus prepared was subjected to incubation at 37°C for 20 minutes. The reaction was halted by adding HCl after incubation of the mixture. The intensity of the color was determined at 540 nm by spectrophotometer, and the formula given below was used for the determination of percent inhibition:(2) percent inhibition=absorbancecontrol−absorbancesample/absorbancecontrol×100.

[5] = tested on: mice; assay: oral glucose tolerance test (OGTT); type: in vivo; conditions: glucose 2 g/kg orally
Experimental: To perform OGTT mice fasted overnight were used including both control and treated mice. Glucose was administered orally at the dose of 2 g/kg against glibenclamide as standard drug. After administration of glucose, blood glucose level was calculated at time intervals of 0, 30, 60, and 120 min for assessment of the impact of exogenously given D-glucose on treated mice. OGTT was carried out 5 days before the completion of the study.
To perform OGTT, mice fasted overnight were used including both control and treated mice. Glucose was administered orally at the dose of 2 g/kg against glibenclamide as a standard drug. After administration of glucose, blood glucose level was calculated at time intervals of 0, 30, 60, and 120 min for assessment of the impact of exogenously given D-glucose on treated mice.

[6] = DPPH scavenging activity; type: biochemical
Experimental: The antioxidant assay of the synthesized compounds was conducted following the previously reported method. A freshly prepared DPPH solution (50 μL of 1.0 × 10^−3 M) was added in methyl alcohol. Methanol was used as a control in this experiment. The prepared mixture was subjected to incubation at 25°C for 30 min. A decrease in the DPPH free radical concentration was calculated using a spectrophotometer at a wavelength of 517 nm. After incubation ascorbic acid was used as a positive control. The antioxidant activity was determined as a percent (%) of inhibition using the formula given:(1) percent inhibition=absorbancecontrol−absorbancesample/absorbancecontrol×100.

With O=C1CCCCC1C1CC(=O)N(c2ccccc2)C1=O (stereo not drawn) [BW1, (2-Oxocyclohexyl)-1-Phenylpyrrolidine-2,5-Dione] the “IC50 (α-amylase)” value [1] was 13.90 mg/L (≈ 51.2 µM), the “% inhibitions (α-amylase)” value ([1]; 31.25 µg/ml) was 57.40 ± 0.40^∗∗∗ % and the “% inhibitions (α-amylase)” value ([1]; 62.50 µg/ml) was 65.08 ± 0.66^∗∗∗ %. For the same molecule, the “% inhibitions (α-amylase)” value ([1]; 125 µg/ml) was 71.78 ± 0.44^∗∗∗ %, the “% inhibitions (α-amylase)” value ([1]; 250 µg/ml) was 75.32 ± 0.40^∗∗∗ % and the “% inhibitions (α-amylase)” value ([1]; 500 µg/ml) was 81.60 ± 0.00^∗∗∗ %. For the same molecule, the “Change in body weight” value ([2]; dose 31.25 μg/kg) was “+2.3 Gm”, the “Blood glucose level, 0 day” value ([2]; dose 31.25 μg/kg) was 418 mg/dL and the “Blood glucose level, 4th day” value ([2]; dose 31.25 μg/kg) was 408 mg/dL. The “Blood glucose level, 7th day” value ([2]; dose 31.25 μg/kg) was 399 mg/dL, the “Blood glucose level, 10th day” value ([2]; dose 31.25 μg/kg) was 382 mg/dL and the “Blood glucose level, 15th day” value ([2]; dose 31.25 μg/kg) was 375 mg/dL. The “Change in body weight” value ([2]; dose 62.5 μg/kg) was “+4.3 Gm”, the “Decrease in blood glucose after 15 days” value ([2]; dose 62.5 μg/kg) was 34 mg/dL and the “Blood glucose level, 0 day” value ([2]; dose 62.5 μg/kg) was 380 mg/dL. For the same molecule, the “Blood glucose level, 4th day” value ([2]; dose 62.5 μg/kg) was 371 mg/dL, the “Blood glucose level, 7th day” value ([2]; dose 62.5 μg/kg) was 365 mg/dL and the “Blood glucose level, 10th day” value ([2]; dose 62.5 μg/kg) was 351 mg/dL. For the same molecule, the “Blood glucose level, 15th day” value ([2]; dose 62.5 μg/kg) was 346 mg/dL, the “Change in body weight” value ([2]; dose 125 μg/kg) was “+4.1 Gm” and the “Decrease in blood glucose after 15 days” value ([2]; dose 125 μg/kg) was 49 mg/dL. The “Blood glucose level, 0 day” value ([2]; dose 125 μg/kg) was 443 mg/dL, the “Blood glucose level, 4th day” value ([2]; dose 125 μg/kg) was 431 mg/dL and the “Blood glucose level, 7th day” value ([2]; dose 125 μg/kg) was 413 mg/dL. For the same molecule, the “Blood glucose level, 10th day” value ([2]; dose 125 μg/kg) was 401 mg/dL, the “Blood glucose level, 15th day” value ([2]; dose 125 μg/kg) was 394 mg/dL and the “Change in body weight” value ([2]; dose 250 μg/kg) was “+5.7 Gm”. For the same molecule, the “Decrease in blood glucose after 15 days” value ([2]; dose 250 μg/kg) was 207 mg/dL, the “Blood glucose level, 0 day” value ([2]; dose 250 μg/kg) was 421 mg/dL and the “Blood glucose level, 4th day” value ([2]; dose 250 μg/kg) was 397 mg/dL. For the same molecule, the “Blood glucose level, 7th day” value ([2]; dose 250 μg/kg) was 345 mg/dL, the “Blood glucose level, 10th day” value ([2]; dose 250 μg/kg) was 219 mg/dL and the “Blood glucose level, 15th day” value ([2]; dose 250 μg/kg) was 214 mg/dL. For the same molecule, the “Change in body weight” value ([2]; dose 500 μg/kg) was “+7.1 Gm”, the “Decrease in blood glucose after 15 days” value ([2]; dose 500 μg/kg) was 121 mg/dL and the “Blood glucose level, 0 day” value ([2]; dose 500 μg/kg) was 412 mg/dL. The “Blood glucose level, 4th day” value ([2]; dose 500 μg/kg) was 388 mg/dL, the “Blood glucose level, 7th day” value ([2]; dose 500 μg/kg) was 372 mg/dL and the “Blood glucose level, 10th day” value ([2]; dose 500 μg/kg) was 312 mg/dL. For the same molecule, the “Blood glucose level, 15th day” value ([2]; dose 500 μg/kg) was 291 mg/dL, the “IC50 (ABTS)” value [3] was 9.40 mg/L (≈ 34.6 µM) and the “(%) ABTS inhibitions” value ([3]; 31.25 µg/ml) was 55.67 ± 0.32^∗∗∗ %. The “(%) ABTS inhibitions” value ([3]; 62.50 µg/ml) was 66.16 ± 0.16^∗∗∗ %, the “(%) ABTS inhibitions” value ([3]; 125 µg/ml) was 70.62 ± 0.25^∗∗∗ % and the “(%) ABTS inhibitions” value ([3]; 250 µg/ml) was 73.36 ± 0.84^∗∗∗ %. The “(%) ABTS inhibitions” value ([3]; 500 µg/ml) was 78.35 ± 0.23^∗∗∗ %, the “IC50 (α-glucosidase)” value [4] was 10.49 mg/L (≈ 38.7 µM) and the “% inhibitions (α-glucosidase)” value ([4]; 31.25 µg/ml) was 65.80 ± 0.90^ns %. The “% inhibitions (α-glucosidase)” value ([4]; 62.50 µg/ml) was 70.40 ± 0.20^ns %, the “% inhibitions (α-glucosidase)” value ([4]; 125 µg/ml) was 76.58 ± 0.63^ns % and the “% inhibitions (α-glucosidase)” value ([4]; 250 µg/ml) was 83.45 ± 0.90^ns %. For the same molecule, the “% inhibitions (α-glucosidase)” value ([4]; 500 µg/ml) was 89.08 ± 1.04^ns %, the “OGTT blood glucose, 0 minutes” value ([5]; 0 minutes) was 165.8 mg/dL and the “OGTT blood glucose, 30 minutes” value ([5]; 30 minutes) was 194.4 mg/dL. For the same molecule, the “OGTT blood glucose, 60 minutes” value ([5]; 60 minutes) was 211.8 mg/dL, the “OGTT blood glucose, 120 minutes” value ([5]; 120 minutes) was 160.3 mg/dL and the “IC50 (DPPH)” value [6] was 10.84 mg/L (≈ 40 µM). For the same molecule, the “(%) DPPH inhibitions” value ([6]; 31.25 µg/ml) was 62.03 ± 0.77^∗∗∗ %, the “(%) DPPH inhibitions” value ([6]; 250 µg/ml) was 77.23 ± 0.96^∗∗∗ % and the “(%) DPPH inhibitions” value ([6]; 500 µg/ml) was 85.83 ± 0.47^∗∗ %.
